From US20180289678A1, “PHARMACEUTICAL COMPOSITION, PHARMACEUTICAL DOSAGE FORM, PROCESS FOR THEIR PREPARATION, METHODS FOR TREATING AND USES THEREOF” (Boehringer Ingelheim International GmbH, priority 2009, published 2018)

Experiment: Particle size distribution measurement by laser diffraction
Assay type: physicochemical
Settings: particle size distribution by volume
Description: The value X90 refers to the 90% value of the volume distribution measured using a laser diffractometer. In other words, for the purposes of the present invention, the X90 value denotes the particle size below which 90% of the quantity of particles is found based on the volume distribution. Analogously the value X50 refers to the 50% value (median) of the volume distribution measured using a laser diffractometer. In other words, for the purposes of the present invention, the X50 value denotes the particle size below which 50% of the quantity of particles is found based on the volume distribution. Analogously the value X10 refers to the 10% value of the volume distribution measured using a laser diffractometer. In other words, for the purposes of the present invention, the X10 value denotes the particle size below which 10% of the quantity of particles is found based on the volume distribution.
Preferably all X90, X50, X10 values hereinbefore and hereinafter are by volume and determined by laser-diffraction method, in particular low angle laser light scattering, i.e. Fraunhofer diffraction. A preferred test is described in the experimental section. The laser diffraction method is sensitive to the volume of a particle and provides a volume-average particle size, which is equivalent to the weight-average particle size if the density is constant.
3. Particle Size Distribution Measurement by Laser Diffraction
Particle size distribution measurement is performed for example via light scattering or laser diffraction technique. To determine the particle size the powder is fed into a laser diffraction spectrometer for example by means of a dispersing unit. The test method is described below in detail:
Equipment: Laser Diffraction Spectrometer Sympatec HELOS Particle Sizer.
Sample Dispersing Unit: Dry disperser RODOS/M
Feed Velocity: 60.00 mm/s
Primary pressure: 2.00 bar
Injector depression: maximize (mbar)2
Reference Measurement: 10 seconds
Trigger Conditions: Start 0.0 seconds after optical concentration 1% valid always
Stop after 5.0 seconds optical concentration 1% or after 30 seconds real time
Optical Concentration: Approximately range 3-12%
Sample Size: Approximately 100 mg
Number of measurements: 2 (duplicate)
The instrument is set up according to the manufacturer's recommendation and using the manufacturer provided software. The sample container is thoroughly mixed and tumbled prior to removing a portion of the sample to ensure that a representative sample is tested. Duplicate samples are prepared by using a spatula to transfer approximately 100 mg of a sample into the ASPIROS glass vials and cap the vials. The capped cials are placed into the feeder.

X10 [μm] | X50 [μm] | X90 [μm] | SMILES
1.8 | 18.9 | 45.3 | OC[C@H]1O[C@@H](c2ccc(Cl)c(Cc3ccc(O[C@H]4CCOC4)cc3)c2)[C@H](O)[C@@H](O)[C@@H]1O [Active substance Batch 1]
1.7 | 12.1 | 25.9 | OC[C@H]1O[C@@H](c2ccc(Cl)c(Cc3ccc(O[C@H]4CCOC4)cc3)c2)[C@H](O)[C@@H](O)[C@@H]1O [Active substance Batch 2]
